Measurements taken from patent US11905278B1, “6-(6-bromo-2-oxo-2H-chromen-3-yl)-4-(2-chlorophenyl)-2-alkoxynicotinonitrile as an antimicrobial compound” (KING FAISAL UNIVERSITY, priority 2023, dated 2024).

Key:
Assay type in all cases: cell-based
Bacillus cereus = test: Agar plate disc-diffusion, antibacterial activity by inhibition zone
Description: (§1) The agar plate disc-diffusion method was applied. Sterilized filter papers (6 mm in diameter) were wetted with 10 μL of a solution of compounds 6-(6-bromo-2-oxo-2H-chromen-3-yl)-4-(2-chlorophenyl)-2-ethoxynicotinonitrile 1 or 6-(6-bromo-2-oxo-2H-chromen-3-yl)-4-(2-chlorophenyl)-2-methoxynicotinonitrile 2 to be tested, containing […], and the discs were allowed to air dry. The discs were then placed onto the surface of agar plates (nutrient agar for bacteria and Sabouraud's dextrose agar for fungi) seeded with the test organism. Each plate contained 15 mL of the agar medium, previously seeded with 0.2 mL of the broth culture of each organism pregrown for 18 hours. The plates were incubated at 37° C. for 48 hours, and 72 hours for fungi. The inhibition zones were measured in mm. Discs impregnated with DMSO were used as a control, and its inhibition zone was subtracted from the tested compound actual inhibition zone.
(§2) The results of the antimicrobial testing can be observed in Tables 1 and 2, below, using ciprofloxacin as a reference.

Staphylococcus aureus = test: as above
Description: as §1, §2

Pseudomonas aeruginosa = test: as above
Description: as §1, §2

Escherichia coli = test: as above
Description: as §1, §2

[1] = tested on: Chrysosporium keratinophilum; test: Agar plate disc-diffusion, antifungal activity by inhibition zone
Description: as §1, §2

Aspergillus flavus = test: as above
Description: as §1, §2

different microbes = test: Antimicrobial testing, overall conclusion; conditions: summary of Tables 1 and 2
Description: as §1
Their antibacterial activity was screened against gram positive bacteria namely Bacillus cereus and Staphylococcus aureus and gram-negative bacterial strains namely Pseudomonas aeruginosa and Escherichia coli, while their antifungal activity was screened against Aspergillus flavus and Chrysosporium keratinophilum.

[2] = A = concentration of comp. = 10,000 μL
[3] = B = concentration of comp. = 30,000 μL
[4] = C = concentration of comp. = 50,000 μL

| Structure (SMILES) | inhibition zone (Bacillus cereus; [2]) | inhibition zone (Bacillus cereus; [3]) | inhibition zone (Bacillus cereus; [4]) | inhibition zone (Staphylococcus aureus; [2]) | inhibition zone (Staphylococcus aureus; [3]) | inhibition zone (Staphylococcus aureus; [4]) | inhibition zone (Pseudomonas aeruginosa; [2]) | inhibition zone (Pseudomonas aeruginosa; [3]) | inhibition zone (Pseudomonas aeruginosa; [4]) | inhibition zone (Escherichia coli; [2]) | inhibition zone (Escherichia coli; [3]) | inhibition zone (Escherichia coli; [4]) | inhibition zone [1, 2] | inhibition zone [1, 3] | inhibition zone [1, 4] | inhibition zone (Aspergillus flavus; [2]) | inhibition zone (Aspergillus flavus; [3]) | inhibition zone (Aspergillus flavus; [4]) | antimicrobial activities (different microbes) |
| --- | --- | --- | --- | --- | --- | --- | --- | --- | --- | --- | --- | --- | --- | --- | --- | --- | --- | --- | --- |
| O=C(O)c1cn(C2CC2)c2cc(N3CCNCC3)c(F)cc2c1=O [Cip., ciprofloxacin, reference compound] | 29 mm | 30 mm | 42 mm | 43 mm | 44 mm | 53 mm | 29 mm | 30 mm | 53 mm | 30 mm | 39 mm | 60 mm | 29 mm | 30 mm | 53 mm | 29 mm | 30 mm | 42 mm |  |
| CCOc1nc(-c2cc3cc(Br)ccc3oc2=O)cc(-c2ccccc2Cl)c1C#N [Compound 1, 6-(6-bromo-2-oxo-2H-chromen-3-yl)-4-(2-chlorophenyl)-2-ethoxynicotinonitrile] | 26 mm | 29 mm | 39 mm | 17 mm | 20 mm | 36 mm | 26 mm | 30 mm | 40 mm | 27 mm | 38 mm | 49 mm | 26 mm | 27 mm | 38 mm | 19 mm | 21 mm | 29 mm | high antimicrobial activities |
| COc1nc(-c2cc3cc(Br)ccc3oc2=O)cc(-c2ccccc2Cl)c1C#N [Compound 2, 6-(6-bromo-2-oxo-2H-chromen-3-yl)-4-(2-chlorophenyl)-2-methoxynicotinonitrile] | 25 mm | 30 mm | 39 mm | 16 mm | 24 mm | 32 mm | 26 mm | 33 mm | 39 mm | 27 mm | 35 mm | 46 mm | 22 mm | 28 mm | 41 mm | 25 mm | 28 mm | 39 mm | high antimicrobial activities |
